This passage reports IC50 results from ChEMBL document CHEMBL1201862, “PubChem BioAssay data set” (2004).

The IC50 is the concentration at which inhibition is half-maximal.

The assay concerns the target Envelope glycoprotein gp160 (Human immunodeficiency virus 1, UniProt Q6QLK5). The assay can be described thus: inhibitors of HIV fusion peptide binding, primary screen, biochemical, uHTS, fluorescence dequenching (AID 1986).

Active and inactive are the calls of the source. No stated cut-off is given here; in the data, actives have a measured IC50 and inactives only a lower limit.

Envelope glycoprotein gp160, sequence (Q6QLK5 whole entry, the tested form may be a part): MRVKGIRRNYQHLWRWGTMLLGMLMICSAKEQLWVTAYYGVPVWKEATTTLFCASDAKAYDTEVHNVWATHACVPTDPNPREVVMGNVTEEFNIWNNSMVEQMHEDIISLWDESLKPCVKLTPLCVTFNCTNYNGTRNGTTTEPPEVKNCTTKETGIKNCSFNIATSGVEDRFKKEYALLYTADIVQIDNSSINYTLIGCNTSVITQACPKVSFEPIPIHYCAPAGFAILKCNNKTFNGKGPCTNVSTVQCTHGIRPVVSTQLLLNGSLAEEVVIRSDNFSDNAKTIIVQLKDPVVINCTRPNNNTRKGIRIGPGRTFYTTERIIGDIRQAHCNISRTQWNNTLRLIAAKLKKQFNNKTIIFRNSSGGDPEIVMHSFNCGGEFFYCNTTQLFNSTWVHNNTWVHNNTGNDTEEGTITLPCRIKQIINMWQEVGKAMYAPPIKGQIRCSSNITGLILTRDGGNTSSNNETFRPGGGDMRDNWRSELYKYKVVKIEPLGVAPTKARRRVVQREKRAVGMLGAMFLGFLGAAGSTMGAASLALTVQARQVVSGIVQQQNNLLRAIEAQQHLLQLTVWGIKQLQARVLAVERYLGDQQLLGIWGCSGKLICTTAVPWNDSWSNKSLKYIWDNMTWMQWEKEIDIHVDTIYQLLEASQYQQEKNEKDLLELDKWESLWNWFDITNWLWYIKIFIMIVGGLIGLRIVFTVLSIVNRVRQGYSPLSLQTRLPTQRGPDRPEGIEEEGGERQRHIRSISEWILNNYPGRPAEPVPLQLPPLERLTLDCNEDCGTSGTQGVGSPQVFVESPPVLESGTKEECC

`O=C(O)CSc1cc(C(=O)c2ccccc2O)cn2c(=O)c3c4c(sc3nc12)CCCC4`: the IC50 is 20.7 µM (active).
